Experimental data published in ChEMBL document CHEMBL3046053, “Synthesis, characterization and herbicidal activity of new thiazoline derivatives” (2013).

Key:
Assay type in all cases: functional
Settings in all cases: read-out: GI
Echinochloa crus-galli [1] = test: Herbicidal activity against barnyard grass Echinochloa crus-galli (barnyard grass) assessed as inhibition of root growth at 10 mg/L relative to untreated control
Brassica napus [2] = test: Herbicidal activity against Brassica napus (oilseed rape) assessed as inhibition of stalk growth at 100 mg/L relative to untreated control
Brassica napus [3] = test: Herbicidal activity against Brassica napus (oilseed rape) assessed as inhibition of stalk growth at 10 mg/L relative to untreated control
Echinochloa crus-galli [4] = test: Herbicidal activity against barnyard grass Echinochloa crus-galli (barnyard grass) assessed as inhibition of root growth at 100 mg/L relative to untreated control
Echinochloa crus-galli [5] = test: Herbicidal activity against barnyard grass Echinochloa crus-galli (barnyard grass) assessed as inhibition of stalk growth at 10 mg/L relative to untreated control
Brassica napus [6] = test: Herbicidal activity against Brassica napus (oilseed rape) assessed as inhibition of root growth at 100 mg/L relative to untreated control
Brassica napus [7] = test: Herbicidal activity against Brassica napus (oilseed rape) assessed as inhibition of root growth at 10 mg/L relative to untreated control
Echinochloa crus-galli [8] = test: Herbicidal activity against barnyard grass Echinochloa crus-galli (barnyard grass) assessed as inhibition of stalk growth at 100 mg/L relative to untreated control

| Compound | inhibition of growth at 10 µg/mL (Echinochloa crus-galli [1]) [%] | inhibition of growth at 100 µg/mL (Brassica napus [2]) [%] | inhibition of growth at 10 µg/mL (Brassica napus [3]) [%] | inhibition of growth at 100 µg/mL (Echinochloa crus-galli [4]) [%] | inhibition of growth at 10 µg/mL (Echinochloa crus-galli [5]) [%] | inhibition of growth at 100 µg/mL (Brassica napus [6]) [%] | inhibition of growth at 10 µg/mL (Brassica napus [7]) [%] | inhibition of growth at 100 µg/mL (Echinochloa crus-galli [8]) [%] |
| --- | --- | --- | --- | --- | --- | --- | --- | --- |
| CCOC(=O)c1s/c(=N\CCCCCC/N=c2/sc(C(=O)OCC)c(N)n2-c2ccccc2)n(-c2ccccc2)c1N | 34.5 | 32 | 12 | 69 | 19.2 | 50 | 21.8 | 38.5 |
| CCOC(=O)c1s/c(=N\CCC/N=c2\sc(C(=O)OCC)c(N)n2-c2ccccc2)n(-c2ccccc2)c1N | 31 | 36 | 12 | 58.6 | 3.8 | 41 | 7.7 | 34.6 |
| CCOC(=O)c1s/c(=N\CC/N=c2/sc(C(=O)OCC)c(N)n2-c2ccccc2)n(-c2ccccc2)c1N | 37.9 | 52 | 52 | 58.6 | 15.4 | 76.9 | 39.7 | 34.6 |
| CCOC(=O)c1s/c(=N\c2ccc(OC)cc2)n(-c2ccccc2)c1N | 74.4 | 92 | 66 | 90.7 | 42.2 | 94.3 | 64 | 61.9 |
| CCOC(=O)c1s/c(=N\c2ccc(C)cc2)n(-c2ccccc2)c1N | 79.1 | 44 | 44 | 88.4 | 25.9 | 79.2 | 34 | 49.6 |
| CCOC(=O)c1s/c(=N\c2ccc(Br)cc2)n(-c2ccccc2)c1N | 76.7 | 72 | 44 | 88.4 | 31.6 | 90.6 | 32.1 | 48.1 |
| CCOC(=O)c1s/c(=N\Cc2ccccc2Cl)n(-c2ccccc2)c1N | 18.8 | 34.8 | -13 | 19.4 | 12.9 | 38.6 | -9.3 | 26.5 |
| CCOC(=O)c1s/c(=N\c2ccccc2)n(-c2ccccc2)c1N | 69.8 | 64 | 52 | 86 | 31.6 | 71.7 | 37.7 | 43.3 |
| CCOC(=O)c1s/c(=N\Cc2ccccc2)n(-c2ccccc2)c1N | 74.4 | 92 | 20 | 83.7 | 40.7 | 98.1 | 47.2 | 44.4 |
| CCCC/N=c1\sc(C(=O)OCC)c(N)n1-c1ccccc1 | 25 | 39.1 | 0 | 34.4 | 19.4 | 29.3 | 0 | 22.6 |
| CCCCCC/N=c1\sc(C(=O)OCC)c(N)n1-c1ccccc1 | 76.7 | 89 | 64 | 86 | 33.3 | 92.5 | 43.4 | 33.3 |
| CCC/N=c1\sc(C(=O)OCC)c(N)n1-c1ccccc1 | 50 | 26.1 | 4.3 | 68.1 | 9.7 | 48 | 40 | 35.5 |
| O=C(O)COc1ccc(Cl)cc1Cl [2,4-DICHLOROPHENOXYACETIC ACID] | 90 | 91.2 | 87.5 | 97.5 | 33.3 | 98 | 88.8 | 43.5 |
